Experimental data reported in US8916599B2, “1H-benz imidazole-5-carboxamides as anti-inflammatory agents” (Orexo AB, priority 2008, dated 2014).

Biological target: T1, recombinant human mPGES-1 (Homo sapiens, UniProt O14684)
T1 construct: made in house; host or cells: Rosetta E. coli (microsomal/membrane fraction)
T1 sequence (O14684 1-152): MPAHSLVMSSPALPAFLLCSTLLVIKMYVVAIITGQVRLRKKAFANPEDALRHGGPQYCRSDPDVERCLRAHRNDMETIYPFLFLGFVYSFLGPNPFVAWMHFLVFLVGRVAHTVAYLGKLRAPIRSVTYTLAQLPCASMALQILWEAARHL
Test: mPGES-1 inhibition test (microsomes, PGH2 substrate, HTRF detection of PGE2)
Format: biochemical
Conditions: for inhibition at 10 µM: inhibition of mPGES-1 at 10 μM; for inhibition at 1 µM: inhibition of mPGES-1 at 1 μM (marked in cell)
Outline: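 PGE2 formed from PGH2 in one minute by E. coli-expressed microsomal enzyme (pH 7.4, 2.5 mM GSH) was measured by competitive HTRF against a synthetic PGE2 standard curve. Compounds were preincubated 25 min at room temperature.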

Structure (SMILES) | inhibition at 10 µM [%] | inhibition at 1 µM [%]
CCC1CCC(NC(=O)c2cc3nc(Nc4c(Cl)cccc4Cl)n(C)c3cc2F)C1 (stereo not drawn) [Example 412, 2-(2,6-Dichlorophenylamino)-N-(3-ethylcyclopentyl)-6-fluoro-1-methyl-1H-benzimidazole-5-carboxamide] | 100 | 
COc1cc2[nH]c(Nc3c(Cl)ccc(Cl)c3F)nc2cc1C(=O)NC1CCC2(CC1)CC2 [Example 613, 2-(3,6-Dichloro-2-fluoro-phenylamino)-N-(spiro[2.5]oct-6-yl)-6-methoxy-1H-benzimidazole-5-carboxamide] | 91 | 
Cn1c(Nc2c(Cl)cccc2Cl)nc2cc(C(=O)NC3(C#N)CCCCC3)ccc21 [Example 257, 2-(2,6-Dichloro-phenylamino)-1-methyl-1H-benzimidazole-5-carboxylic acid (1-cyano-cyclohexyl)-amide] | 100 | 
CCOc1cc2c(cc1C(=O)NC1CCC(C(F)(F)F)CC1)nc(Nc1c(Cl)ccc(Cl)c1F)n2C (stereo not drawn) [Example 605, 2-(3,6-Dichloro-2-fluoro-phenylamino)-6-ethoxy-N-(4-trans-trifluoromethyl-cyclohex-1-yl)-1-methyl-1H-benzimidazole-5-carboxamide] | 93 | 
O=C(Nc1nc2c(s1)CCCC2)c1ccc2[nH]c(Nc3c(Cl)cccc3Cl)nc2c1 [Example 79, 2-(2,6-Dichloro-phenylamino)-1H-benzimidazole-5-carboxylic acid (4,5,6,7-tetrahydro-benzothiazol-2-yl)-amide] | 100 | 
O=C(Nc1ccc(Cl)c(C(F)(F)F)c1)c1ccc2[nH]c(Nc3c(Cl)cccc3Cl)nc2c1 [Example 282, 2-(2,6-Dichloro-phenylamino)-1H-benzimidazole-5-carboxylic acid (4-chloro-3-trifluoromethyl-phenyl)-amide] |  | 100
O=C(Nc1ccc(Br)cc1)c1ccc2[nH]c(Nc3cccc(Cl)c3Cl)nc2c1 [Example 108, 2-(2,3-Dichloro-phenylamino)-1H-benzimidazole-5-carboxylic acid (4-bromo-phenyl)-amide] | 100 | 
O=C(O)CCn1c(Nc2c(Cl)cccc2Cl)nc2cc(C(=O)Nc3cc(Cl)ccn3)ccc21 [Example 265, 2-(2,6-Dichloro-phenylamino)-1-(propionic acid)-1H-benzimidazole-5-carboxylic acid (4-chloro-pyridin-2-yl)-amide] | 97 | 
COc1cccc(NC(=O)c2ccc3nc(Nc4c(Cl)cccc4Cl)[nH]c3c2)n1 [Example 194, 2-(2,6-Dichloro-phenylamino)-3H-benzimidazole-5-carboxylic acid (6-methoxy-pyridin-2-yl)-amide] | 98 | 
Cc1ccccc1Nc1nc2cc(C(=O)Nc3ccccc3)ccc2[nH]1 [Example 10, 2-(o-Tolyl-amino)-1H-benzimidazole-5-carboxylic acid-phenylamide] | 98 | 
Cc1cc(C)c(Nc2nc3cc(C(=O)Nc4ccc(Br)cc4)ccc3n2C)c(Cl)c1 [Example 489, N-(4-Bromophenyl)-2-(2-chloro-4,6-dimethylphenylamino)-1-methyl-1H-benzimidazole-5-carboxamide] | 98 | 
COc1cc2c(cc1C(=O)Nc1cc(Cl)c(C)cn1)nc(Nc1c(Cl)cccc1Cl)n2C [Example 634, 2-(2,6-Dichlorophenylamino)-N-(4-chloro-5-methyl-pyridin-2-yl)-6-methoxy-1-methyl-1H-benzimidazole-5-carboxamide] | 97 | 
CC(C)NC(=O)c1cc(Br)c2c(c1)nc(Nc1c(Cl)cccc1Cl)n2C [Example 353, 7-Bromo-2-(2,6-dichloro-phenylamino)-1-methyl-1H-benzimidazole-5-carboxylic acid isopropylamide] | 75 | 
COCCOc1cccc(NC(=O)c2ccc3[nH]c(Nc4c(Cl)cccc4Cl)nc3c2)n1 [Example 571, 2-(2,6-Dichlorophenylamino)-N-(6-(2-methoxyethoxy)pyridin-2-yl)-1H-benzimidazole-5-carboxamide] | 86 | 
Cn1c(Nc2c(Cl)cccc2Cl)nc2cc(C(=O)NCc3ccccn3)c(F)cc21 [Example 548, 2-(2,6-Dichlorophenylamino)-6-fluoro-1-methyl-N-(pyridin-2-ylmethyl)-1H-benzimidazole-5-carboxamide] | 93 | 
O=C(NCc1ccncc1)c1ccc2[nH]c(Nc3c(Cl)cccc3Cl)nc2c1 [Example 236, 2-(2,6-Dichloro-phenylamino)-1H-benzimidazole-5-carboxylic acid (pyridin-4-ylmethyl)-amide] | 83 | 
O=C(Nc1ccc(Br)cc1)c1cc2nc(Nc3c(Cl)ccc(Cl)c3F)[nH]c2cc1OCC(F)(F)F [Example 593, 2-(3,6-Dichloro-2-fluoro-phenylamino)-N-(4-bromophenyl)-6-(2,2,2-trifluorethoxy)-1H-benzimidazole-5-carboxamide] | 97 | 

Structure (SMILES) | inhibition at 10 µM [%] | inhibition at 1 µM [%]
Cn1c(Nc2cc(C(F)(F)F)ccc2Cl)nc2cc(C(=O)Nc3ccc(Br)cc3)ccc21 [Example 423, N-(4-Bromophenyl)-2-(2-chloro-5-trifluoromethyl-phenylamino)-1-methyl-1H-benzimidazole-5-carboxamide] | 100 | 
O=C(Nc1cc(Cl)ccn1)c1cc2[nH]c(Nc3c(Cl)cccc3Cl)nc2cc1F [Example 142, 2-(2,6-Dichloro-phenylamino)-6-fluoro-3H-benzimidazole-5-carboxylic acid (4-chloro-pyridin-2-yl)-amide] | 100 | 
COc1cc2[nH]c(Nc3c(Cl)ccc(C)c3F)nc2cc1C(=O)N[C@H]1CC[C@H](C(F)(F)F)CC1 [Example 622, 2-(6-Chloro-2-fluoro-3-methyl-phenylamino)-6-methoxy-N-(4-trans-trifluoromethyl-cyclohex-1-yl)-1H-benzimidazole-5-carboxamide] |  | 96
Cc1ccnc(CNC(=O)c2cc3nc(Nc4c(Cl)cccc4Cl)n(C)c3cc2F)c1 [Example 534, 2-(2,6-Dichlorophenylamino)-6-fluoro-1-methyl-N-((4-methylpyridin-2-yl)methyl)-1H-benzimidazole-5-carboxamide] | 80 | 
CS(=O)(=O)c1cccc(NC(=O)c2ccc3[nH]c(Nc4c(Cl)cccc4Cl)nc3c2)c1 [Example 224, 2-(2,6-Dichloro-phenylamino)-1H-benzimidazole-5-carboxylic acid (3-methanesulfonyl-phenyl)-amide] | 100 | 
Cc1ccc(Cl)c(Nc2nc3cc(C(=O)NC4CCC(C)(C)CC4)c(F)cc3n2C)c1F [Example 627, 2-(6-Chloro-2-fluoro-3-methyl-phenylamino)-6-fluoro-N-(4,4-dimethyl-cyclohex-1-yl)-1-methyl-1H-benzimidazole-5-carboxamide] |  | 94
COc1cc2[nH]c(Nc3c(Cl)cccc3Cl)nc2cc1C(=O)NCc1ncccc1C(F)(F)F [Example 383, 2-(2,6-Dichlorophenylamino)-6-methoxy-N-((3-trifluoromethyl-pyridin-2-yl)-methyl)-1H-benzimidazole-5-carboxamide] | 100 | 
Cn1c(Nc2c(Cl)cccc2Cl)nc2cc(C(=O)NCc3ccc(C(F)(F)F)cn3)ccc21 [Example 246, 2-(2,6-Dichloro-phenylamino)-1-methyl-1H-benzimidazole-5-carboxylic acid (5-trifluoromethyl-pyridin-2-ylmethyl)-amide] | 100 | 
O=C(Nc1cc(Cl)nc(Cl)c1)c1ccc2[nH]c(Nc3c(Cl)cccc3Cl)nc2c1 [Example 187, 2-(2,6-Dichloro-phenylamino)-1H-benzimidazole-5-carboxylic acid (2,6-dichloro-pyridin-4-yl)-amide] | 98 | 
Cn1c(Nc2c(Cl)cccc2Cl)nc2cc(C(=O)NC3(C)CCCCC3)c(F)cc21 [Example 164, 2-(2,6-Dichloro-phenylamino)-6-fluoro-1-methyl-1H-benzimidazole-5-carboxylic acid (1-methyl-cyclohexyl)-amide] | 100 | 
Cn1c(Nc2c(Cl)cccc2Cl)nc2cc(C(=O)Nc3cc(C(F)(F)F)ccn3)c(F)cc21 [Example 130, 2-(2,6-Dichloro-phenylamino)-6-fluoro-1-methyl-1H-benzimidazole-5-carboxylic acid (4-trifluoromethyl-pyridin-2-yl)-amide] | 93 | 
CS(=O)(=O)NCCCn1c(Nc2c(Cl)cccc2Cl)nc2cc(C(=O)Nc3cc(Cl)ccn3)ccc21 [Example 206, 2-(2,6-Dichloro-phenylamino)-1-(3-methanesulfonylamino-propyl)-1H-benzimidazole-5-carboxylic acid (4-chloro-pyridin-2-yl)-amide] | 100 | 
CC1CC(NC(=O)c2ccc3[nH]c(Nc4c(Cl)cccc4Cl)nc3c2)CC(C)(C)C1 (stereo not drawn) [Example 218, 2-(2,6-Dichloro-phenylamino)-1H-benzimidazole-5-carboxylic acid (3,3,5-trimethyl-cyclohexyl)-amide] | 100 | 
O=C(NC1COc2ccccc2C1)c1cc2[nH]c(Nc3c(Cl)cccc3Cl)nc2cc1F (stereo not drawn) [Example 152, 2-(2,6-Dichloro-phenylamino)-6-fluoro-1H-benzimidazole-5-carboxylic acid chroman-3-ylamide] | 95 | 
Cc1ccc(NC(=O)c2ccc3[nH]c(Nc4c(Cl)cccc4Cl)nc3c2)cc1 [Example 5, 2-(2,6-Dichloro-phenylamino)-1H-benzimidazole-5-carboxylic acid p-tolylamide] | 100 | 
Cn1c(Nc2c(Cl)cccc2Cl)nc2cc(C(=O)Nc3ccc(S(C)(=O)=O)cc3)ccc21 [Example 250, 2-(2,6-Dichloro-phenylamino)-1-methyl-1H-benzimidazole-5-carboxylic acid (4-methanesulfonyl-phenyl)-amide] | 73 | 
